Measurements as given in patent publication US12673961B2 (Agios Pharmaceuticals, Inc., priority 2022, dated 2026).

Target: T1, human PAH with the R408W mutation (Homo sapiens, UniProt P00439, R408W)
T1 construct: expressed in transfected cells
T1 sequence (P00439 1-452 R408W): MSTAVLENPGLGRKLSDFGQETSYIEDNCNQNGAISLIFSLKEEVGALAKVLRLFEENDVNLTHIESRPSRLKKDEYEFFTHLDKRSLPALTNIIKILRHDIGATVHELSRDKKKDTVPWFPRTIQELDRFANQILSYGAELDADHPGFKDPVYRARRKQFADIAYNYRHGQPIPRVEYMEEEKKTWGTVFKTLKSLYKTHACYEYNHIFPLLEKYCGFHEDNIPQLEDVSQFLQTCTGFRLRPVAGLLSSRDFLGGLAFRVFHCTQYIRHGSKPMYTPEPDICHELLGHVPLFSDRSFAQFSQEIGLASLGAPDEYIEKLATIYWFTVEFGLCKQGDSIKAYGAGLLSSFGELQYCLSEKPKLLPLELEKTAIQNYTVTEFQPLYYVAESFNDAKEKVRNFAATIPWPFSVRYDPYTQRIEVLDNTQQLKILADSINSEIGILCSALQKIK
Assay: Cell Based Phenylalanine Flux Assay;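 further: Ten-point dose curve from 2-fold serial dilutions, run in duplicate at 0.5% DMSO final, tracer step used 20 µM sepiapterin and 800 µM labeled phenylalanine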
Settings: A375 cells expressing R408W PAH; 24 hrs with compound, then 20 μM sepiapterin and 800 μM 13C9,15N-Phenylalanine for 4 hours; 13C-Tyrosine in media by LC-MS; average where tested multiple times; read-out: AC50
Protocol: Compounds were resuspended in DMSO, and 2-fold serial dilutions were performed to generate a 10-point dose curve. Compounds were added to plated cells in a total volume of 100 μl, and a final DMSO concentration of 0.5%. Each compound was tested in duplicate. Following compound addition, cells were placed in a 5% CO2, 37° C. tissue culture incubator for 24 hrs. […] 20 μM sepiapterin and 800 μM 13C9,15N-Phenylalanine were added. After 4 hours, cell media was removed. An aliquot of 10 μl of cell media was combined with 200 μl of extraction buffer (80% acetonitrile/20% H2O) for each well. Determination of ^13C-Tyrosine concentration was assessed by liquid chromatography mass spectrometry.
Where a compound was tested multiple times, the average value of the tests is reported.

Row | SMILES | AC50
1 | O=C(c1cnn(-c2ccccn2)c1Cl)N1CCc2[nH]cnc2[C@@H]1c1cc2ccccn2n1 (single isomer, unassigned) | > 5000 nM
2 | FC(F)c1cccn2nc([C@H]3c4nc[nH]c4CCN3c3nnc(-c4cccnc4)o3)cc12 (single isomer, unassigned) | > 5000 nM
3 | Cc1c(-c2ncc(C(=O)N3CCc4[nH]cnc4[C@H]3c3cc4ccccn4n3)o2)cnn1C (single isomer, unassigned) | 1000 to 5000 nM
4 | Cc1n[nH]cc1-c1nnc(C(=O)N2CCc3[nH]cnc3[C@H]2c2cc3c(C)cccn3n2)o1 (single isomer, unassigned) | 1000 to 5000 nM
5 | FC1(F)CC(c2nnc(N3CCc4[nH]cnc4[C@H]3c3cc4c(C(F)(F)F)cccn4n3)o2)C1 (single isomer, unassigned) | 1000 to 5000 nM
6 | O=C(c1nnc(C2CC(F)(F)C2)o1)N1CCc2[nH]cnc2[C@H]1c1cc2ccccn2n1 (single isomer, unassigned) | 1000 to 5000 nM
7 | CC(C)(F)c1nnc(N2CCc3[nH]cnc3[C@H]2c2cc3c(C4CC4)cccn3n2)o1 (single isomer, unassigned) | > 5000 nM
8 | CC(C)c1cccn2nc([C@@H]3c4nc[nH]c4CCN3c3nnc(-c4ncccn4)o3)cc12 (single isomer, unassigned) | 1000 to 5000 nM
9 | Clc1cccn2nc([C@@H]3c4nc[nH]c4CCN3c3nnc(-c4ncccn4)o3)cc12 (single isomer, unassigned) | 1000 to 5000 nM
10 | O=C(c1nnc(-c2ccc(C(F)(F)F)cn2)o1)N1CCc2[nH]cnc2[C@H]1c1cc2ccccn2n1 (single isomer, unassigned) | 1000 to 5000 nM
11 | O=C(c1cnc(-c2ncccn2)o1)N1CCc2[nH]cnc2[C@H]1c1cc2ccccn2n1 (single isomer, unassigned) | 1000 to 5000 nM
12 | Cc1cccc2cc([C@@H]3c4nc[nH]c4CCN3c3nnc(C4CCC4)o3)nn12 (single isomer, unassigned) | 1000 to 5000 nM
13 | Cc1cccn2nc([C@@H]3c4nc[nH]c4CCN3c3cccc(F)n3)cc12 (single isomer, unassigned) | 1000 to 5000 nM
14 | FC(F)(F)c1cccn2nc([C@@H]3c4nc[nH]c4CCN3c3nnc(-c4cccnc4)o3)cc12 (single isomer, unassigned) | 1000 to 5000 nM
15 | Fc1cccn2nc([C@@H]3c4nc[nH]c4CCN3c3nnc(-c4cccnn4)o3)cc12 (single isomer, unassigned) | 1000 to 5000 nM
16 | Fc1cccnc1-c1nnc(N2CCc3[nH]cnc3[C@H]2c2cc3c(C(F)(F)F)cccn3n2)o1 (single isomer, unassigned) | 1000 to 5000 nM
17 | c1cc(C2CC2)c2cc([C@@H]3c4nc[nH]c4CCN3c3nnc(-c4ccncn4)o3)nn2c1 (single isomer, unassigned) | 1000 to 5000 nM
18 | O=C(C1CC1)N1CCc2[nH]cnc2[C@H]1c1cc2c(F)cccn2n1 (single isomer, unassigned) | > 5000 nM
19 | Cn1cncc1-c1nnc(C(=O)N2CCc3[nH]cnc3C2c2cc3c(C(F)(F)F)cccn3n2)o1 (single isomer, unassigned) [4S enantiomer of 2-(1-methyl-1H-imidazol-5-yl)-5-14-[4-(trif] | 1000 to 5000 nM
20 | FC1(F)CC(c2nnc(N3CCc4[nH]cnc4C3c3cc4ccccn4n3)o2)C1 (single isomer, unassigned) [4S enantiomer of 2-(3,3-difluorocyclobutyl)-5-[4-{pyrazolo{1] | > 5000 nM
21 | FC(F)(F)c1ccc(N2CCc3[nH]cnc3C2c2cc3cccc(C(F)(F)F)n3n2)nc1 (single isomer, unassigned) [4S enantiomer of 5-(trifluoromethyl)-2-[4-[7-(trifluoromethy] | 1000 to 5000 nM

Same assay, conditions: A375 cells expressing human R408W PAH; 24 hrs compound incubation; 13C-Tyrosine by LC-MS; average where tested multiple times; read-out: AC50

Row | AC50 | SMILES
22 | 500 to 1000 nM | N#Cc1ncoc1C(=O)N1CCc2[nH]cnc2[C@H]1c1cc2ccccn2n1 (single isomer, unassigned) [Example 640]
23 | > 5000 nM | N#Cc1ncoc1C(=O)N1CCc2[nH]cnc2[C@@H]1c1cc2ccccn2n1 (single isomer, unassigned) [Example 641]
24 | > 5000 nM | Cn1ccc(-c2nnc(C(=O)N3CCc4[nH]cnc4[C@@H]3c3cc4c(C(F)(F)F)cccn4n3)o2)n1 (single isomer, unassigned) [Example 837]
25 | 1000 to 5000 nM | Cn1nc(C(F)F)nc1C(=O)N1CCc2[nH]cnc2C1c1cc2c(Cl)cccn2n1 (stereo in doubt) [Example 781, (R)-(4-(4-chloropyrazolo [1,5-a]pyridin-2-yl)-6,7-dihydro-1H-imidazo[4,5-c]pyridin-5(4H)-yl)(3-(difluoromethyl)-1-methyl-1H-1,2,4-triazol-5-yl)methanone]
26 | 500 to 1000 nM | Cn1cnc(-c2nnc(C(=O)N3CCc4[nH]cnc4C3c3cc4c(C(F)(F)F)cccn4n3)o2)c1 (stereo in doubt) [Example 934, (S)-(5-(1-methyl-1H-imidazol-4-yl)-1,3,4-oxadiazol-2-yl)(4-(4-(trifluoromethyl)pyrazolo[1,5-a]pyridin-2-yl)-6,7-dihydro-1H-imidazo [4,5-c]pyridin-5(4H)-yl)methanone]
27 | 500 to 1000 nM | CCOc1cccc2cc(C3c4nc[nH]c4CCN3C(=O)c3oc(C(C)(C)O)nc3C(F)F)nn12 (stereo in doubt) [Example 1245, (S)-(4-(difluoromethyl)-2-(2-hydroxypropan-2-yl)oxazol-5-yl)(4-(7-ethoxypyrazolo [1,5-a]pyridin-2-yl)-6,7-dihydro-1H-imidazo[4,5-c]pyridin-5(4H)-yl)methanone]
28 | 1000 to 5000 nM | CC(F)(F)c1ncc(C(=O)N2CCc3[nH]cnc3[C@@H]2c2cc3ccccn3n2)s1 [Example 613, (R)-(2-(1,1-difluoroethyl)thiazol-5-yl)(4-(pyrazolo [1,5-a]pyridin-2-yl)-6,7-dihydro-1H-imidazo[4,5-c]pyridin-5(4H)-yl)methanone]
29 | 1000 to 5000 nM | Cn1ccc(-c2nnc(C(=O)N3CCc4[nH]cnc4[C@H]3c3cc4ccccn4n3)o2)n1 [Example 658, (S)-(5-(1-methyl-1H-pyrazol-3-yl)-1,3,4-oxadiazol-2-yl)(4-(pyrazolo[1,5-a]pyridin-2-yl)-6,7-dihydro-1H-imidazo[4,5-c]pyridin-5(4H)-yl)methanone]
30 | > 5000 nM | Cn1nc(Cl)cc1C(=O)N1CCc2[nH]cnc2[C@@H]1c1cc2ccccn2n1 [Example 681, (R)-(3-chloro-1-methyl-1H-pyrazol-5-yl)(4-(pyrazolo [1,5-a]pyridin-2-yl)-6,7-dihydro-1H-imidazo[4,5-c]pyridin-5(4H)-yl)methanone]

The remaining lines, values behind:

Row | SMILES | AC50
31 | O=C(c1oc(-c2ccccn2)nc1C1CC1)N1CCc2[nH]cnc2[C@H]1c1cc2ccccn2n1 [Example 622, (S)-(4-cyclopropyl-2-(pyridin-2-yl)oxazol-5-yl)(4-(pyrazolo[1,5-a]pyridin-2-yl)-6,7-dihydro-1H-imidazo[4,5-c]pyridin-5(4H)-yl)methanone] | 500 to 1000 nM
32 | O=C(CC1CC(F)C1)N1CCc2[nH]cnc2[C@H]1c1cc2ccccn2n1 (stereo partly drawn) [Example 636, (S)-2-(3-fluorocyclobutyl)-1-(4-(pyrazolo[1,5-a]pyridin-2-yl)-6,7-dihydro-1H-imidazo [4,5-c]pyridin-5(4H)-yl)ethenone] | < 500 nM
33 | O=C(CC1CC(F)C1)N1CCc2[nH]cnc2[C@@H]1c1cc2ccccn2n1 (stereo partly drawn) [Example 637, (R)-2-(3-fluorocyclobutyl)-1-(4-(pyrazolo[1,5-a]pyridin-2-yl)-6,7-dihydro-1H-imidazo [4,5-c]pyridin-5(4H)-yl)ethanone] | 1000 to 5000 nM
34 | Cc1cc(F)ccc1-c1nnc(C(=O)N2CCc3[nH]cnc3[C@@H]2c2cc3ccccn3n2)o1 [Example 655, (R)-(5-(4-fluoro-2-methylphenyl)-1,3,4-oxadiazol-2-yl)(4-(pyrazolo [1,5-a]pyridin-2-yl)-6,7-dihydro-1H-imidazo[4,5-c]pyridin-5(4H)-yl)methanone] | 1000 to 5000 nM
35 | N#Cc1ncoc1C(=O)N1CCc2[nH]cnc2[C@@H]1c1cc2ccc(Cl)cn2n1 [Example 685, (R)-5-(4-(6-chloropyrazolo [1,5-a]pyridin-2-yl)-4,5,6,7-tetrahydro-1H-imidazo[4,5-c]pyridine-5-carbonyl) oxazole-4-carbonitrile] | > 5000 nM

Same assay, conditions: A375 cells expressing human R408W PAH; 24 hrs with compound, then sepiapterin and 13C9,15N-Phenylalanine for 4 hours; 13C-Tyrosine by LC-MS; average where tested multiple times; read-out: AC50

Row | AC50 | SMILES
36 | < 500 nM | Fc1cccc(F)c1-c1nnc(N2CCc3[nH]cnc3[C@H]2c2cc3ccccn3n2)o1 (single isomer, unassigned) [Example 1843]
37 | < 500 nM | O=C(c1cnc(-c2ccccn2)o1)N1CCc2[nH]cnc2C1c1cc2c(C(F)(F)F)cccn2n1 (stereo in doubt) [Example 2036, (S)-(2-(pyridin-2-yl)oxazol-5-yl)(4-(4-(trifluoromethyl)pyrazolo [1,5-a]pyridin-2-yl)-1,4,6,7-tetrahydro-5H-imidazo[4,5-c]pyridin-5-yl)methanone]
38 | < 500 nM | O=C(c1cnc(C2CC2)o1)N1CCc2[nH]cnc2C1c1cc2c(F)cccn2n1 (stereo in doubt) [Example 2098, (S)-(2-cyclopropyloxazol-5-yl)(4-(4-fluoropyrazolo[1,5-a]pyridin-2-yl)-1,4,6,7-tetrahydro-5H-imidazo[4,5-c]pyridin-5-yl)methanone]
39 | 500 to 1000 nM | CC(C)c1nnc(N2CCc3[nH]cnc3C2c2cc3c(F)cccn3n2)o1 (stereo in doubt) [Example 2323, (S)-2-(4-(4-fluoropyrazolo [1,5-a]pyridin-2-yl)-1,4,6,7-tetrahydro-5H-imidazo [4,5-c]pyridin-5-yl)-5-isopropyl-1,3,4-oxadiazole]
